We go through 1 compound from patent US4066635A, “L-Pyroglutamyl-L-histidyl-L-prolyl-beta-alaninamide and salts” (Hoffmann-La Roche Inc., priority 1976, dated 1978).

In series [1] the test system is mouse. Kind of series: Toxicity (LD 10, LD 50) in the mouse. Type of series: in vivo. As to conditions: p.o.
Series [2] can be described thus: Toxicity (LD 10, LD 50) in the mouse. It is filed as in vivo. As to conditions: in vivo, iv.
Series [3] has as its system noradrenalin (NA) in the entire brain of male mice. Kind of series: Lowering of noradrenalin (NA) in entire brain of mice after FLA 63 (FLA 63-induced NA-lowering). It is filed as in vivo, mouse. The protocol: The action of antidepressants can be explained by the fact that such substances normalise the activity of noradrenergic neurones in the brain, this activity being altered in the case of depressive illness. […] If a test substance has NA-liberating action, then this manifests itself in an intensification of the FLA63-induced NA-lowering.
In order to determine the antidepressant action of the compound of formula I hereinbefore, the lowering of NA in the entire brain of male mice was determined 90 minutes after the i.p. injection of FLA 63 (5 mg/kg).

Series [4] concerns mice. Kind of series: Locomotor activity in mice. Type of series: in vivo, mouse.

Non-standard residues stand in square brackets, D forms with d. Residues, ends and D or L forms follow the SMILES beside them. pGlu = O=C1CC[C@@H](C(=O)O)N1; βAla = NCCC(=O)O Where only a bound is given, the exact number is not on record here.

As for `NC(=O)CCNC(=O)[C@@H]1CCCN1C(=O)[C@H](Cc1c[nH]cn1)NC(=O)[C@@H]1CCC(=O)N1` [compound of formula I, L-pyroglutamyl-L-histidyl-L-prolyl-β-alaninamide] ([pGlu]HP[βAla]-NH2), in series [1], the “LD 10” value is reported as “above 8 g/kg”. The LD50 in series [2] is > 4000 mg/kg. Further, the “Noradrenalin (%)” value in series [3] (FLA 63 5 mg/kg i.p. plus test substance injected simultaneously, 90 minutes, entire brain, male mice, FLA 63 alone = 100%) amounted to 82.2 ± 2.6%. Moreover, the “liberation of NA in the brain of mice (in words)” value in series [3] (mice) was “increases the liberation of NA”. The “FLA 63-induced NA-lowering (in words)” value in series [3] (simultaneous injection with FLA 63 (5 mg/kg i.p.), 90 minutes, male mice) was “significant acceleration of the FLA 63-induced NA-lowering”. For the same compound, the “locomotor activity in mice (in words)” value in series [4] is “increase in the locomotor activity”.
